Source: ChEMBL document CHEMBL1201862, “PubChem BioAssay data set” (2004)
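Briefly, cells in 96-well plates were exposed to five compound concentrations for 48 h, and endpoints were estimated by linear interpolation. Here, GI50 denotes the concentration required for 50% inhibition of growth.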 Activity calls are given as the source filed them. Rule as the data show it: active = GI50 up to about 1.1 µM and inactive = higher.

How the values were obtained:
Assay in all cases: NCI-60 cell line screen, 48 h
786-0 = tested on: 786-0
SR = tested on: SR
PC-3 = tested on: PC-3
MDA-MB-435 = tested on: MDA-MB-435
T47D = tested on: T47D
SF-295 = tested on: SF-295
OVCAR-4 = tested on: OVCAR-4
SN12C = tested on: SN12C
NCI/ADR-RES = tested on: NCI/ADR-RES
HCC 2998 = tested on: HCC 2998
K562 = tested on: K562
NCI-H460 = tested on: NCI-H460
SK-MEL-5 = tested on: SK-MEL-5
HOP-92 = tested on: HOP-92
RXF 393 = tested on: RXF 393
A498 = tested on: A498
HL-60 = tested on: HL-60
HCT-116 = tested on: HCT-116
OVCAR-5 = tested on: OVCAR-5
SK-MEL-28 = tested on: SK-MEL-28

Question: What does the source list for CCCC[C@H]1C(=O)O[C@H](C)[C@H](NC(=O)c2cccc(NC=O)c2O)C(=O)O[C@@H](C)[C@@H]1OC(=O)CC(C)C [ANTIMYCIN A3]?
Answer: GI50 (786-0): 9080 nM (inactive); GI50 (SR): < 34.7 nM (active); GI50 (PC-3): 278 nM (active); GI50 (MDA-MB-435): 1110 nM (active); GI50 (T47D): 2190 nM (inactive); GI50 (SF-295): < 42.1 nM (active); GI50 (OVCAR-4): 2370 nM (inactive); GI50 (SN12C): 14200 nM (inactive); GI50 (NCI/ADR-RES): 5320 nM (inactive); GI50 (HCC 2998): 10900 nM (inactive); GI50 (K562): < 12.3 nM (active); GI50 (NCI-H460): < 10 nM (active); GI50 (SK-MEL-5): < 10 nM (active); GI50 (HOP-92): 5360 nM (inactive); GI50 (RXF 393): 6490 nM (inactive); GI50 (A498): 4230 nM (inactive); GI50 (HL-60): 96.8 nM (active); GI50 (HCT-116): < 10 nM (active); GI50 (OVCAR-5): 17000 nM (inactive); GI50 (SK-MEL-28): 6730 nM (inactive)
